Data published in ChEMBL document CHEMBL3885881, “DrugMatrix”.

Species: Rattus norvegicus
Experiment: DrugMatrix - Regimen: Daily Repeat
Format: toxicity, organism-based, Sprague-Dawley
Design: regimen Daily Repeat, gender Male, age 6-8 weeks
Details: in vivo, po, route oral GAVAGE, vehicle .5 % CMC; for ABSOLUTE BASOPHIL / ABSOLUTE EOSINOPHIL / ABSOLUTE LYMPHOCYTE / ABSOLUTE MONOCYTE / ABSOLUTE SEGMENTED NEUTROPHIL / BASOPHIL / EOSINOPHIL / ERYTHROCYTE COUNT / HEMATOCRIT / HEMOGLOBIN / LEUKOCYTE COUNT / LYMPHOCYTE / MEAN CORPUSCULAR HEMOGLOBIN / MEAN CORPUSCULAR HEMOGLOBIN CONCENTRATION / MEAN CORPUSCULAR VOLUME / MONOCYTE / NEUTROPHIL / NUCLEATED RED BLOOD CELLS / PLATELET COUNT: tissue Blood; for ALANINE AMINOTRANSFERASE / ALBUMIN / ALKALINE PHOSPHATASE / ASPARTATE AMINOTRANSFERASE / BLOOD UREA NITROGEN / CARBON DIOXIDE / CHLORIDE / CHOLESTEROL / CREATINE PHOSPHOKINASE / CREATININE / GLUCOSE / LIPASE / PHOSPHORUS / POTASSIUM / SODIUM / TOTAL BILIRUBIN / TOTAL PROTEIN / URIC ACID: tissue Plasma
[1] = 0.3 mg/kg, 72 h, dose level High, time 3 day
[2] = 0.3 mg/kg, 120 h, dose level High, time 5 day
[3] = […], 72 h, dose 0.014 mg/Kg, dose level Low, time 3 day
[4] = […], 120 h, dose 0.014 mg/Kg, dose level Low, time 5 day

## COc1cc2c(c3oc(=O)c4c(c13)CCC4=O)[C@@H]1C=CO[C@@H]1O2 [AFLATOXIN]
[1]
  ABSOLUTE BASOPHIL: 0 CELLS/uL
  ABSOLUTE EOSINOPHIL: 214.67 CELLS/uL
  ABSOLUTE LYMPHOCYTE: 14943 CELLS/uL
  ABSOLUTE MONOCYTE: 279 CELLS/uL
  ABSOLUTE SEGMENTED NEUTROPHIL: 1230 CELLS/uL
  BASOPHIL: 0%
  EOSINOPHIL: 1.33%
  ERYTHROCYTE COUNT: 5.62 x10E6/uL
  HEMATOCRIT: 35.63%
  HEMOGLOBIN: 13.67 G/DL
  LEUKOCYTE COUNT: 16.67 x10E3/uL
  LYMPHOCYTE: 89.67%
  MEAN CORPUSCULAR HEMOGLOBIN: 24.33 pg
  MEAN CORPUSCULAR HEMOGLOBIN CONCENTRATION: 38.33 G/DL
  MEAN CORPUSCULAR VOLUME: 63.4 fL
  MONOCYTE: 1.67%
  NEUTROPHIL: 7.33%
  NUCLEATED RED BLOOD CELLS: 0.33 /100WBC
  PLATELET COUNT: 1408.33 x10E3/uL
  ALANINE AMINOTRANSFERASE: 50 u/L
  ALBUMIN: 4.07 G/DL
  ALKALINE PHOSPHATASE: 424 u/L
  ASPARTATE AMINOTRANSFERASE: 109.33 u/L
  BLOOD UREA NITROGEN: 15.67 mg/dL
  CARBON DIOXIDE: 24.33 mmol/L
  CHLORIDE: 104 MEQ/L
  CHOLESTEROL: 59.67 mg/dL
  CREATINE PHOSPHOKINASE: 568.33 u/L
  CREATININE: 0.14 mg/dL
  GLUCOSE: 152.67 mg/dL
  LIPASE: 8.67 u/L
  PHOSPHORUS: 13 mg/dL
  POTASSIUM: 6.95 MEQ/L
  SODIUM: 144.7 MEQ/L
  TOTAL BILIRUBIN: 0.23 mg/dL
  TOTAL PROTEIN: 5.27 G/DL
  URIC ACID: 1.73 mg/dL
[2]
  ABSOLUTE BASOPHIL: 0 CELLS/uL
  ABSOLUTE EOSINOPHIL: 83.33 CELLS/uL
  ABSOLUTE LYMPHOCYTE: 13811.33 CELLS/uL
  ABSOLUTE MONOCYTE: 454 CELLS/uL
  ABSOLUTE SEGMENTED NEUTROPHIL: 784.67 CELLS/uL
  BASOPHIL: 0%
  EOSINOPHIL: 0.67%
  ERYTHROCYTE COUNT: 5.95 x10E6/uL
  HEMATOCRIT: 36.77%
  HEMOGLOBIN: 14.07 G/DL
  LEUKOCYTE COUNT: 15.13 x10E3/uL
  LYMPHOCYTE: 91%
  MEAN CORPUSCULAR HEMOGLOBIN: 23.63 pg
  MEAN CORPUSCULAR HEMOGLOBIN CONCENTRATION: 38.23 G/DL
  MEAN CORPUSCULAR VOLUME: 61.8 fL
  MONOCYTE: 3%
  NEUTROPHIL: 5.33%
  NUCLEATED RED BLOOD CELLS: 0 /100WBC
  PLATELET COUNT: 1425.67 x10E3/uL
  ALANINE AMINOTRANSFERASE: 64.67 u/L
  ALBUMIN: 4.1 G/DL
  ALKALINE PHOSPHATASE: 290.33 u/L
  ASPARTATE AMINOTRANSFERASE: 102.33 u/L
  BLOOD UREA NITROGEN: 17.33 mg/dL
  CARBON DIOXIDE: 27 mmol/L
  CHLORIDE: 105.5 MEQ/L
  CHOLESTEROL: 48 mg/dL
  CREATINE PHOSPHOKINASE: 345.67 u/L
  CREATININE: 0.19 mg/dL
  GLUCOSE: 158.67 mg/dL
  LIPASE: 9 u/L
  PHOSPHORUS: 12.27 mg/dL
  POTASSIUM: 5.92 MEQ/L
  SODIUM: 147.5 MEQ/L
  TOTAL BILIRUBIN: 0.13 mg/dL
  TOTAL PROTEIN: 5.53 G/DL
  URIC ACID: 1.93 mg/dL
[3]
  ABSOLUTE BASOPHIL: 0 CELLS/uL
  ABSOLUTE EOSINOPHIL: 94 CELLS/uL
  ABSOLUTE LYMPHOCYTE: 13843.33 CELLS/uL
  ABSOLUTE MONOCYTE: 261.67 CELLS/uL
  ABSOLUTE SEGMENTED NEUTROPHIL: 1234.33 CELLS/uL
  BASOPHIL: 0%
  EOSINOPHIL: 0.67%
  ERYTHROCYTE COUNT: 5.21 x10E6/uL
  HEMATOCRIT: 33%
  HEMOGLOBIN: 12.47 G/DL
  LEUKOCYTE COUNT: 15.43 x10E3/uL
  LYMPHOCYTE: 89.67%
  MEAN CORPUSCULAR HEMOGLOBIN: 23.93 pg
  MEAN CORPUSCULAR HEMOGLOBIN CONCENTRATION: 37.8 G/DL
  MEAN CORPUSCULAR VOLUME: 63.23 fL
  MONOCYTE: 1.67%
  NEUTROPHIL: 8%
  NUCLEATED RED BLOOD CELLS: 0 /100WBC
  PLATELET COUNT: 1257 x10E3/uL
  ALANINE AMINOTRANSFERASE: 47.67 u/L
  ALBUMIN: 4.1 G/DL
  ALKALINE PHOSPHATASE: 302.67 u/L
  ASPARTATE AMINOTRANSFERASE: 99 u/L
  BLOOD UREA NITROGEN: 16.33 mg/dL
  CARBON DIOXIDE: 25.33 mmol/L
  CHLORIDE: 103.33 MEQ/L
  CHOLESTEROL: 64.67 mg/dL
  CREATINE PHOSPHOKINASE: 408 u/L
  CREATININE: 0.21 mg/dL
  GLUCOSE: 142.33 mg/dL
  LIPASE: 9 u/L
  PHOSPHORUS: 12.17 mg/dL
  POTASSIUM: 6.42 MEQ/L
  SODIUM: 143.57 MEQ/L
  TOTAL BILIRUBIN: 0.2 mg/dL
  TOTAL PROTEIN: 5.47 G/DL
  URIC ACID: 1.47 mg/dL
[4]
  ABSOLUTE BASOPHIL: 0 CELLS/uL
  ABSOLUTE EOSINOPHIL: 37.67 CELLS/uL
  ABSOLUTE LYMPHOCYTE: 14048 CELLS/uL
  ABSOLUTE MONOCYTE: 191.67 CELLS/uL
  ABSOLUTE SEGMENTED NEUTROPHIL: 1122.67 CELLS/uL
  BASOPHIL: 0%
  EOSINOPHIL: 0.33%
  ERYTHROCYTE COUNT: 5.76 x10E6/uL
  HEMATOCRIT: 35.83%
  HEMOGLOBIN: 13.37 G/DL
  LEUKOCYTE COUNT: 15.4 x10E3/uL
  LYMPHOCYTE: 91%
  MEAN CORPUSCULAR HEMOGLOBIN: 23.2 pg
  MEAN CORPUSCULAR HEMOGLOBIN CONCENTRATION: 37.3 G/DL
  MEAN CORPUSCULAR VOLUME: 62.2 fL
  MONOCYTE: 1.33%
  NEUTROPHIL: 7.33%
  NUCLEATED RED BLOOD CELLS: 1.33 /100WBC
  PLATELET COUNT: 1353 x10E3/uL
  ALANINE AMINOTRANSFERASE: 48.33 u/L
  ALBUMIN: 4.3 G/DL
  ALKALINE PHOSPHATASE: 352.33 u/L
  ASPARTATE AMINOTRANSFERASE: 90.33 u/L
  BLOOD UREA NITROGEN: 19.67 mg/dL
  CARBON DIOXIDE: 26.33 mmol/L
  CHLORIDE: 105.67 MEQ/L
  CHOLESTEROL: 63.33 mg/dL
  CREATINE PHOSPHOKINASE: 486.67 u/L
  CREATININE: 0.21 mg/dL
  GLUCOSE: 164.67 mg/dL
  LIPASE: 8.33 u/L
  PHOSPHORUS: 12.6 mg/dL
  POTASSIUM: 6.34 MEQ/L
  SODIUM: 146.9 MEQ/L
  TOTAL BILIRUBIN: 0.2 mg/dL
  TOTAL PROTEIN: 6.03 G/DL
  URIC ACID: 1.93 mg/dL
